Assay results as given in ChEMBL document CHEMBL1127200, “Novel dimeric penicillin derived inhibitors of HIV-1 proteinase: interaction with the catalytic aspartates” (Bioorg Med Chem Lett, 1993).

Target: Human immunodeficiency virus type 1 protease (Human immunodeficiency virus 1, UniProt Q72874)
Experiment: The compound was tested in vitro for its inhibitory activity against HIV-1 Proteinase activity

SMILES	IC50 [nM]
CCCNC(=O)[C@@H](NC(=O)Cc1ccccc1)[C@@H]1N[C@@H](C(=O)N(C)CCN(C)C(=O)[C@@H]2N[C@@H]([C@H](NC(=O)Cc3ccccc3)C(=O)NCC)SC2(C)C)C(C)(C)S1	11
CC1(C)S[C@H]([C@H](NC(=O)Cc2ccccc2)C(=O)NCc2ccccc2)N[C@H]1C(=O)NC[C@@H](O)[C@H](O)CNC(=O)[C@@H]1N[C@@H]([C@H](NC(=O)Cc2ccccc2)C(=O)NCc2ccccc2)SC1(C)C	15
CC1(C)S[C@H]([C@H](NC(=O)Cc2ccccc2)C(=O)NCc2ccccc2)N[C@H]1C(=O)NCCCCNC(=O)[C@@H]1N[C@@H]([C@H](NC(=O)Cc2ccccc2)C(=O)NCc2ccccc2)SC1(C)C	530
CC1(C)S[C@H]([C@H](NC(=O)Cc2ccccc2)C(=O)NCc2ccccc2)N[C@H]1C(=O)NC[C@H](O)[C@@H](O)CNC(=O)[C@@H]1N[C@@H]([C@H](NC(=O)Cc2ccccc2)C(=O)NCc2ccccc2)SC1(C)C	36
CCCNC(=O)[C@@H](NC(=O)Cc1ccccc1)[C@@H]1N[C@@H](C(=O)NCC(CO)NC(=O)[C@@H]2N[C@@H]([C@H](NC(=O)Cc3ccccc3)C(=O)NCC)SC2(C)C)C(C)(C)S1 (stereo partly specified)	25
CC1(C)S[C@H]([C@H](NC(=O)Cc2ccccc2)C(=O)NCc2ccccc2)N[C@H]1C(=O)NC[C@@H](O)[C@@H](O)CNC(=O)[C@@H]1N[C@@H]([C@H](NC(=O)Cc2ccccc2)C(=O)NCc2ccccc2)SC1(C)C	14
